Consider four compounds from patent publication US20080161327A1, “Substituted 9-Alkyladenines and the Use Thereof” (Aderis Pharmaceuticals, Inc., priority 2005, published 2008).

pIC50, pKi: −log10 of the molar value. Where two headings read alike, the source gives them in different places.

Test [1] has as its target T1, A1 (h) adenosine receptor (Homo sapiens, UniProt P30542).
T1 construct: expressed in transfected cells
T1 sequence (P30542 1-326): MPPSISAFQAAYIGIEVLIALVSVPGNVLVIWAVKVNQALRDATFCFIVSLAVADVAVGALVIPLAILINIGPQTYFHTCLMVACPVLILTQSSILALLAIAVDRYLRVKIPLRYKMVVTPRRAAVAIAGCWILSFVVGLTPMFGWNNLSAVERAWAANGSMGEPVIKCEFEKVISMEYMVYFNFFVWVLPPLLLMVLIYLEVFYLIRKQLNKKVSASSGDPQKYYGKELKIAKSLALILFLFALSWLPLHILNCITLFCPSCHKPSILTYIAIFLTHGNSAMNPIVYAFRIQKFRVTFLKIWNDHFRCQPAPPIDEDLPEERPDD
In words: Human recombinant adenosine receptor binding, A1 (h), [3H]DPCPX. The conditions noted are these: for A1 Selectivity vs. A2A / A1 Selectivity vs. A2B / A1 Selectivity vs. A3: ratio of Ki. The method, then: (§1) The compounds of the present invention were subjected to in vitro human recombinant adenosine receptor binding assays. Scintillation counting was used as the method of detection.
(§2) The IC50 values (concentration causing a half-maximal inhibition of control specific binding) and Hill coefficients (nH) were determined by non-linear regression analysis of the competition curves using Hill equation curve fitting (Motulsky, H. and Christopoulos, A., Fitting Models to Biological Data Using Linear and Nonlinear Regression, GraphPad Software Inc. (2003)).
(§3) The inhibition constants (Ki) were calculated from the Cheng Prusoff equation (Motulsky, H. and Christopoulos, A., supra).

In test [2] the target is T2, A2B (h) adenosine receptor (Homo sapiens, UniProt P29275).
T2 construct: expressed in transfected cells
T2 sequence (P29275 1-332): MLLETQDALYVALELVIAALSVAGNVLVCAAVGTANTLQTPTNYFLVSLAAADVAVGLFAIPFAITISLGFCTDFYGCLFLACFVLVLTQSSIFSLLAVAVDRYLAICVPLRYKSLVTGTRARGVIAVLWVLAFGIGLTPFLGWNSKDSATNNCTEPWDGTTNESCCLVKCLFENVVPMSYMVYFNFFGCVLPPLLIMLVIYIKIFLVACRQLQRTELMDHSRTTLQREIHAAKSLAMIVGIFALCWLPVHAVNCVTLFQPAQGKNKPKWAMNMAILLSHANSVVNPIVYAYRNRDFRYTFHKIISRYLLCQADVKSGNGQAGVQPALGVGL
In words: Human recombinant adenosine receptor binding, A2B (h), [3H]MRS 1754. As to conditions: for pKi: Table 8, read-out: Affinity Ki, A2B. The method, then:
as §1, §2, §3

For test [3], the target named is T3, A1 (h) (agonist site) adenosine receptor (Homo sapiens, UniProt P30542).
T3 construct: expressed in transfected cells
T3 sequence (P30542 1-326): T1 sequence (P30542 1-326)
In words: Human recombinant adenosine receptor binding, A1 (h) (agonist site), [3H]CCPA. The conditions noted are these: for pKi / pIC50 / nH (Hill coefficient), A1 (h) (agonist site): [3H]CCPA, Table 5; for pKi: Cheng Prusoff. The method, then:
as §1, §2, §3

A further test addresses T4, adenosine A1 receptors (Cavia porcellus, UniProt P47745).
T4 construct: from tissue; host or cells: guinea pig left atria
T4 sequence (P47745 1-326): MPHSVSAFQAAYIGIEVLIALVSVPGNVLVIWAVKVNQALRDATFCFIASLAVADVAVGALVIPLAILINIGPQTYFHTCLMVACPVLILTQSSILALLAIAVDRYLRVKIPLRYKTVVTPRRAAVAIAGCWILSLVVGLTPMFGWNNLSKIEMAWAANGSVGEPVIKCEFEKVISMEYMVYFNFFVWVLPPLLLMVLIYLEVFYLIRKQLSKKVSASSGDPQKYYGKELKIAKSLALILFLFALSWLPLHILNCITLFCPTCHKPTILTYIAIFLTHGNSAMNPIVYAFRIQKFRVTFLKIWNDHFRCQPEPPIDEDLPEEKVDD
Kind of test: Adenosine A1 in vitro functional test, negative inotropic response in left atria (Schild plot). The format is cell-based. As to conditions: guinea pig left atria, agonist NECA or CPA, read-out: KB (antagonist dissociation constant). The method, then: A1 assay—Negative inotropic response (Barrett, R. J. et al., J. Pharmacol. Exp. Ther. 265:227-236 (1993)): Guinea pig left atria were placed in organ baths filled with Krebs Henseleit solution gassed with 95% O2 and 5% CO2 and maintained at a temperature of 31° C. An initial resting tension of 1 g was placed on each tissue, which was allowed to equilibrate. Atria were stimulated electrically to produce twitch responses. A fixed concentration of the test compound was added and the tissue was allowed to equilibrate for 1 hour before cumulative additions of an adenosine agonist (either 5′-N-ethylcarboxamidoadenosine (NECA) or N^6-cyclopentyladenosine (CPA)) to generate a dose response curve. This procedure was repeated with different concentrations of test compounds to generate a family of dose response curves. Schild plots were constructed from the resultant concentration-effect curves, and KB (antagonist dissociation constant) values were obtained. The results presented in Table 9 are expressed as KB values (concentrations of test compound such that one-half of the tissue adenosine receptor population is occupied by the test compound).

Test [4] has as its target T5, A3 (h) adenosine receptor (Homo sapiens, UniProt P0DMS8).
T5 construct: expressed in transfected cells
T5 sequence (P0DMS8 1-318): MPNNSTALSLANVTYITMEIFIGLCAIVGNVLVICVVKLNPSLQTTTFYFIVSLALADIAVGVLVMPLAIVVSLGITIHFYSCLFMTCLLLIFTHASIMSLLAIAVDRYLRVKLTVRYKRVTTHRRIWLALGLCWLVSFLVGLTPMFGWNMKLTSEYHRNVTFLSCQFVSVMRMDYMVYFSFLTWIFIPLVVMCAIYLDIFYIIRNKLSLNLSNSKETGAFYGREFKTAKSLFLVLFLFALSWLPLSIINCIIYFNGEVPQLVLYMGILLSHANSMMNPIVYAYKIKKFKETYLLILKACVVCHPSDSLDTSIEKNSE
Kind of test: Human recombinant adenosine receptor binding, A3 (h), [3H]AB-MECA. As to conditions: for pKi: Table 8, read-out: Affinity Ki, A3. How it is done: as §1, §2, §3

The target in test [5] is T6, A2A (h) adenosine receptor (Homo sapiens, UniProt P29274).
T6 construct: expressed in transfected cells
T6 sequence (P29274 whole entry): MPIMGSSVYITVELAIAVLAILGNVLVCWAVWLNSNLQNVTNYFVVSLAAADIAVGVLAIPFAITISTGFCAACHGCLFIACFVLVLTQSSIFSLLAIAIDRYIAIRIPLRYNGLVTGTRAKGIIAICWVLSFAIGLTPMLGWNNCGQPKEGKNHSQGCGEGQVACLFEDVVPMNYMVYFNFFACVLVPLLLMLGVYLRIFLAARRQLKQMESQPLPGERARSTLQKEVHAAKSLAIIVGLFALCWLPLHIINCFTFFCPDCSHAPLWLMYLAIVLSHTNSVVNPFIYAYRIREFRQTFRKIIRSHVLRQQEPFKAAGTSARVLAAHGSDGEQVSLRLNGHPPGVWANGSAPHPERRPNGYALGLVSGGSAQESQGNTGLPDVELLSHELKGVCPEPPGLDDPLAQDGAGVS
In words: Human recombinant adenosine receptor binding, A2A (h), [3H]CGS 21680. How it is done: as §1, §2, §3

The mark [6] stands for this setting: Table 8, read-out: Affinity Ki, A1.
[7] abbreviates: [3H]DPCPX, Cheng Prusoff, Table 5, read-out: Ki, A1 (h).
Where [8] appears, read: Cheng Prusoff, Table 6, read-out: Ki, A2A (h).
Where [9] appears, read: Table 8, read-out: Affinity Ki, A2A.

For `CC(C)N(C)c1nc2c(NC3CC4CC3CC4OCCCS(=O)(=O)O)ncnc2n1C` (single isomer, unassigned) [1 (−isomer)], the pKi in test [1] (setting [6]) was 5.96; in test [1] (setting [7]), 5.96; in test [2], less than 4.00; in test [3], 5.74; in test [4], less than 4.00; in test [5] (setting [8]) it was 4.09. Moreover, the pKi in test [5] (setting [9]) is 4.09. Also, the negative-log IC50 (pIC50) in test [1] ([3H]DPCPX, Table 5) is 5.74; in test [3], 5.37; in test [5] (Table 6), 4.00. Also, the “nH (Hill coefficient), A1 (h)” value in test [1] ([3H]DPCPX, Table 5) came to 1.0. Moreover, in test [1] (Table 8), the “A1 Selectivity vs. A2A” value came out at 75. In addition, the “A1 Selectivity vs. A2B” value in test [1] (Table 8) is recorded as greater than 3000. The “A1 Selectivity vs. A3” value in test [1] (Table 8) was greater than 3000. The “nH (Hill coefficient), A1 (h) (agonist site)” value in test [3] is on record as 1.0. Moreover, the antagonist dissociation constant (Kb) on adenosine A1 receptors came out at 300 nM. Further, the “nH (Hill coefficient), A2A (h)” value in test [5] (Table 6) was found to be 1.4.
As to `CC(C)N(C)c1nc2c(NC3CC4CC3CC4OCCCS(=O)(=O)O)ncnc2n1C` (single isomer, unassigned) [Compound 1 (+isomer)], the pKi is 7.49 in test [1] (setting [6]); 7.49 in test [1] (setting [7]); less than 4.00 in test [2]; 7.07 in test [3]; less than 4.00 in test [4]; 5.59 in test [5] (setting [8]). In test [5] (setting [9]), the pKi was 5.59. The pIC50 in test [1] ([3H]DPCPX, Table 5) was 7.28; in test [3], 6.68; in test [4] (Table 7, N.C. = not calculable, less than 25% inhibition at the highest tested concentration) it was less than 4.00; in test [5] (Table 6) it was 5.49. In addition, the “nH (Hill coefficient), A1 (h)” value in test [1] ([3H]DPCPX, Table 5) stood at 0.9. For the same compound, the “A1 Selectivity vs. A2A” value in test [1] (Table 8) worked out at 81. Further, in test [1] (Table 8), the “A1 Selectivity vs. A2B” value is given as greater than 3000. Moreover, the “A1 Selectivity vs. A3” value in test [1] (Table 8) is recorded as greater than 3000. Besides, the “nH (Hill coefficient), A1 (h) (agonist site)” value in test [3] is recorded as 1.3. The Kb on adenosine A1 receptors was 32000 nM. In addition, the “nH (Hill coefficient), A2A (h)” value in test [5] (Table 6) is 0.8.
For the compound `CC(C)N(C)c1nc2c(N[C@H]3CC[C@H](OCCCS(=O)(=O)O)CC3)ncnc2n1C` [Compound 6, N^6-[trans-4′-(^3-sulfopropoxy)cyclohexyl]-8-isopropylmethylamino-9-methyladenine], the Kb on adenosine A1 receptors was found to be 85000 nM.
With `CC(C)N(C)c1nc2c(NC3CC4CC3CC4O)[n+](C)cnc2n1C.[Cl-]` (stereo not drawn) [Compound 14, N^6-(endo-5′-hydroxynorbornyl)-1-methyl-8-isopropylmethylamino-9-methyladenine chloride], the “Percent Inhibition of Control Specific Binding, A1 (h)” value in test [1] (compound at 1×10^−5M, CHO cells, [3H]DPCPX 1 nM) is reported as −1. Moreover, in test [2] (compound at 1×10^−5M, HEK-293 cells, [3H]MRS 1754 0.5 nM), the “Percent Inhibition of Control Specific Binding, A2B (h)” value is 5. Moreover, in test [3] (compound at 1×10^−5M, CHO cells, [3H]CCPA 1 nM), the “Percent Inhibition of Control Specific Binding, A1 (h) (agonist site)” value came to 18. The “Percent Inhibition of Control Specific Binding, A3 (h)” value in test [4] (compound at 1×10^−5M, HEK-293 cells, [3H]AB-MECA 0.15 nM) was determined as 5. Moreover, the “Percent Inhibition of Control Specific Binding, A2A (h)” value in test [5] (compound at 1×10^−5M, HEK-293 cells, [3H]CGS 21680 6 nM) was −9.

As a reminder, the pKi is −log10 of the Ki, conventionally taken in molar units. Usually pIC50 stands for −log10 of the IC50, conventionally taken in molar units. What is called Kb is the affinity of an antagonist, worked out from how it opposes an agonist.
